Results on three molecules are retold here after patent US8101655B2, “Fluorescent dyes and complexes” (priority 2004, dated 2012).

Data set [1] is described as follows: pKa of dyes and complexes (fluorescence titration).
Excerpt: By way of illustration, Table 1, below, lists a number of dyes, some prior to functionalisation, and complexes according to the present invention (in each X is O^−), together with their pKa values.
Data set [2] is described as follows: Fluorescence / colour response to pH. In kind it is physicochemical. The following applies: on tlc, compared with 2-[3,6-bisdimethylaminoxanth-9-ylium]-5-dimethylaminophenol. From the text:
The dyes and complexes of the present invention show a negative fluorescence intensity response with increasing pH. […] Furthermore, the pals of these dyes and complexes may be varied by selection of the substituents R^5 and R^6, and by the inclusion of electron donating groups on the lowermost aryl ring, to give a range of dyes and complexes having pKa's particularly suited to cell analysis procedures.

Like-named read-outs stand apart in the source and are kept apart here.

In general, pKa refers to the pH at which an ionisable group is half protonated.

Regarding `COCCOCCN(CCOCCOC)c1ccc(-c2c3ccc(=[N+](CCOCCOC)CCOCCOC)cc-3oc3cc(N(CCOCCOC)CCOCCOC)ccc23)c([O-])c1`, the pKa in data set [1] was 2.3.
For “2-[3-diethylamino-6-dimethylamino-xanth-9-ylium]-5-dimethylaminophenol”, the pH sensitivity result in data set [2] is on record as “same pH sensitivity”.
Take “R1-Y=NHCSNC6H4CH2CH2; target=transferin; R2=Et; R3=Me; R4=Me; R5-Y2=Et; R6=Et: complex of a dye of formula (I) bonded to transferin”: in data set [1] (Table 1, X is O-, dyes and complexes), the pKa is given as 2.0.
